{"source": "patent US20250074912A1", "about": "“IMPROVED PROCESS FOR THE PREPARATION OF UPADACITINIB” (MSN LABORATORIES PRIVATE LIMITED, R&D CENTER, priority 2022, published 2025)", "assay": "Storage stability of amorphous Upadacitinib", "assay_type": "physicochemical"}
{"smiles": "CC[C@@H]1CN(C(=O)NCC(F)(F)F)C[C@@H]1c1cnc2cnc3[nH]ccc3n12", "note": "[Amorphous form of Upadacitinib, (3S,4R)-3-ethyl-4-(3H-imidazo[1,2-a]pyrrolo[2,3-e]pyrazin-8-yl)-N-(2,2,2-trifluoroethyl)pyrrolidine-1-carboxamide]", "values": [{"measurement": "stability on storage", "setting": "12 months at 25° C./60+5% relative humidity", "value": "stable"}, {"measurement": "stability on storage", "setting": "12 months at 40±2° C./75±5% relative humidity", "value": "stable"}]}
